From patent US10202356B2, “JAK2 and ALK2 inhibitors and methods for their use” (Tolero Pharmaceuticals, Inc., priority 2013, dated 2019)
Where two headings read alike, the source gives them in different places.

Experiments:
JAK2 kinase = target: T1, JAK2 kinase (Homo sapiens, UniProt O60674); experiment: JAK2 kinase assay, Z'-LYTE technology; format: biochemical
T1 construct: purchased Life Technologies (Drug Discovery and Development Services, Madison, Wis.)
Protocol: (§1) Biochemical assays to measure the inhibitory effects of the compounds were performed by the Drug Discovery and Development Services at Life Technologies (Madison, Wis.). JAK2 kinase assays were performed using Z′-LYTE® technology, while ALK2 inhibition was tested using a LanthaScreen® binding assay.

ALK2 = target: T2, ALK2 (Homo sapiens, UniProt Q04771); experiment: ALK2 inhibition, LanthaScreen binding assay
T2 construct: purchased Life Technologies (Drug Discovery and Development Services, Madison, Wis.)
T2 sequence (Q04771 21-509): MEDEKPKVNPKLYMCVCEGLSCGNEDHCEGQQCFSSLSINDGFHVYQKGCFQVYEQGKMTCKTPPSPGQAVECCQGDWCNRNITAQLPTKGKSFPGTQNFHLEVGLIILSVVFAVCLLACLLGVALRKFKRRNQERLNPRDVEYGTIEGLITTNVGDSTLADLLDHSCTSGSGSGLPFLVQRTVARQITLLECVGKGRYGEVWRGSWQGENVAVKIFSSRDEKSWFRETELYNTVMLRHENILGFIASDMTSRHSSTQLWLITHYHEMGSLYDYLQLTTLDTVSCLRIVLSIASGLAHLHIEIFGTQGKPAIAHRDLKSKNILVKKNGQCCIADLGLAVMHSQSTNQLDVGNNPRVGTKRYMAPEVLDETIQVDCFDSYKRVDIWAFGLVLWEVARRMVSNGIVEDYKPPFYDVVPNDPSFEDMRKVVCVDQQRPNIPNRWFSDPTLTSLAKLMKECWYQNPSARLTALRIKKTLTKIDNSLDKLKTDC
Protocol: as §1

[1] = tested on: hepcidin expression induced by BMP2 in HEPG2 cells; experiment: BMP2-induced hepcidin expression in HEPG2 cells; format: cell-based; conditions: 0.3 μM
[2] = Pharmacokinetic profile, IV and PO administration; format: in vivo, female rats; design: AUC 0-inf: concentration or dose not given beside the values; conditions: for half-life: read-out: t½ (converted)
[3] = tested on: hepcidin expression of HEPG2 cells; experiment: Baseline hepcidin expression in HEPG2 cells, real-time RT-PCR; format: cell-based; conditions: 3 μM, 6 hours, HEPG2, normalized to β-actin
Protocol: Hepcidin expression of HEPG2 cells treated with exemplary compounds of the invention was tested. […] To observe the ability of the compounds to effect baseline hepcidin expression, HEPG2 (hepatocellular carcinoma) cells were treated with compound for 6 hours and then assayed for hepcidin expression by real-time RT-PCR (normalized to levels of β-actin). Hepcidin expression was lowered in a dose dependent manner. Hepcidin expression was inhibited by 90% at a 3 μM concentration of Compound 12. […] In contrast, Compound 7 treated cells produced a 50% decrease in the induction when treated at 0.3 μM.

hepcidin expression = experiment: Liver hepcidin expression in mice after single oral dose, real-time RT-PCR; format: in vivo; conditions: single oral dose 250 mg/kg, liver mRNA after six hours
Protocol: Hepcidin expression in the mice treated with compounds 4 and 12 was compared to hepcidin expression in mice treated with compound A. In this experiment, mice were treated orally with a single dose of test compound. After six hours, livers were removed from euthanized animals and RNA extracted. Hepcidin mRNA levels were determined by real-time RT-PCR as described above.

[4] = PO, free base or salt form as labelled

T1 sequence (O60674 whole entry): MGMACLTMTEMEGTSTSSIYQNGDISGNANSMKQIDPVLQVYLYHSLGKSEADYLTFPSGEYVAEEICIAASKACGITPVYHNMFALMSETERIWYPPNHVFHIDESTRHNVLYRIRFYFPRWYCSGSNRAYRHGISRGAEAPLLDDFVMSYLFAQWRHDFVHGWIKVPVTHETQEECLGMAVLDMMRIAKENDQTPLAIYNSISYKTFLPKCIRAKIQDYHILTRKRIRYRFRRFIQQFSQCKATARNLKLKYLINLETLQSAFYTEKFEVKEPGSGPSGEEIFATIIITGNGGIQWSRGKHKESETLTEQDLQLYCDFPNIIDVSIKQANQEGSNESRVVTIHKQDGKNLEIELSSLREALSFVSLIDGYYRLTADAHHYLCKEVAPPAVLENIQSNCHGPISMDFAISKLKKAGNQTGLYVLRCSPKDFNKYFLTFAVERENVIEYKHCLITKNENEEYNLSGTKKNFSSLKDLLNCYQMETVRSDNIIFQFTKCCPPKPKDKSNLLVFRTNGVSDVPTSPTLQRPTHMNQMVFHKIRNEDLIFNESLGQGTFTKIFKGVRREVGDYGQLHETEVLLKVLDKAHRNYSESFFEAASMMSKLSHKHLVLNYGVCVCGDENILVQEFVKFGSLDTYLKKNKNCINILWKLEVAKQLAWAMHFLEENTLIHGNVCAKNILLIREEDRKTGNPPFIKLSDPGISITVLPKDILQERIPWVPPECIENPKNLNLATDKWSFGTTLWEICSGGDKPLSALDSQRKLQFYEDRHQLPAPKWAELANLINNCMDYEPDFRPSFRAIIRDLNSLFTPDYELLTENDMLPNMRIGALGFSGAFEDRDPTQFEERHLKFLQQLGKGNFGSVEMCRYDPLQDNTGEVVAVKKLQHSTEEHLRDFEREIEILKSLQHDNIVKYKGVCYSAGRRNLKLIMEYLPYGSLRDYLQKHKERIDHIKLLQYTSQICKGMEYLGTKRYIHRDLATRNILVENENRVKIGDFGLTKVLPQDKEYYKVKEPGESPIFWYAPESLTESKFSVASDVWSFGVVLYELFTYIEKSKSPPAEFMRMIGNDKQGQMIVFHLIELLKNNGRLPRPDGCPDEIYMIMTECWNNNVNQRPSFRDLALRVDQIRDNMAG

## N#CC1(c2cccc(Nc3ccnc(Nc4ccc(N5CCN(CCO)CC5)c(Cl)c4)n3)c2)CC1 [Compound 7, 1-(3-((2-((3-chloro-4-(4-(2-hydroxyethyl)piperazin-1-yl)phenyl)amino)pyrimidin-4-yl)amino)phenyl) cyclopropanecarbonitrile]
JAK2 kinase
  IC50: < 10 nM
ALK2
  IC50: 10 to 1000 nM
[1]
  decrease in the BMP2 induction of hepcidin: 50%

## CN1CCN(c2ccc(Nc3nccc(Nc4cccc(C5(C#N)CC5)c4)n3)cc2F)CC1 [Compound 8, 1-(3-((2-((3-fluoro-4-(4-methylpiperazin-1-yl)phenyl)amino)pyrimidin-4-yl)amino)phenyl)cyclopropanecarbonitrile]
JAK2 kinase
  IC50: < 10 nM
ALK2
  IC50: 10 to 1000 nM

## O=C(O)C(O)C(O)C(=O)O (stereo not drawn) [Tartaric]
[2]; [4]
  AUC 0-inf: 370.9 ng·h/mL
  Cmax: 18.5 ng/mL
  Tmax: 0.3 h

## COc1cc(Nc2nccc(Nc3ccc(C)cc3CC#N)n2)ccc1N1CCN(C)CC1 [Compound 19, 2-(2-(2-(3-methoxy-4-(4-methylpiperazin-1-yl)phenylamino)pyrimidin-4-ylamino)-5-methylphenyl)acetonitrile]
JAK2 kinase
  IC50: 10 to 1000 nM
ALK2
  IC50: 10 to 1000 nM

## CN1CCN(c2ccc(Nc3ncc(Cl)c(Nc4cccc(CC#N)c4)n3)cc2F)CC1 [Compound 1, 2-(3-((5-chloro-2((3-fluoro-4-(4-methylpiperazin-1-yl)phenyl)amino)pyrimidin-4-yl)amino)phenyl)acetonitrile]
JAK2 kinase
  IC50: > 1000 nM
ALK2
  IC50: > 1000 nM

## CC(=O)O [Acetate]
[2]; [4]
  AUC 0-inf: 1200.1 ng·h/mL
  Cmax: 176.8 ng/mL
  F: 24.7 % IV
  Tmax: 0.5 h
  t½: 5.8 h

## COc1cc(Nc2nccc(Nc3cccnc3-c3ccccn3)n2)cc(OC)c1OC [Compound 12, N^4-(2,2′-bipyridin-3-yl)-N^2-(3,4,5-trimethoxyphenyl)pyrimidine-2,4-diamine]
JAK2 kinase
  IC50: > 1000 nM
ALK2
  IC50: < 10 nM
[3]
  Hepcidin expression inhibited: 90%
[2]; female rats
  plasma concentration levels after 24 hours: remained high
[2]; rat, plasma, female rats, oral dose
  bioavailability: 95%

## H2SO4 [Compound H2SO4]
[2]; [4]
  AUC 0-inf: 538.3 ng·h/mL
  Cmax: 53.8 ng/mL
  F: 17.8 % IV
  Tmax: 1.0 h
  t½: 9.2 h

## COc1cnc(Nc2ccc(N3CCN(CCO)CC3)c(Cl)c2)nc1Nc1cccc(C2(C#N)CC2)c1 [Compound 9, 1-(3-(2-(3-chloro-4-(4-(2-hydroxyethyl)piperazin-1-yl)phenylamino)-5-methoxypyrimidin-4-ylamino)phenyl)cyclopropanecarbonitrile]
JAK2 kinase
  IC50: 10 to 1000 nM
ALK2
  IC50: > 1000 nM

## Oxalate
[2]; [4]
  AUC 0-inf: 721.2 ng·h/mL
  Cmax: 81.9 ng/mL
  F: 17.3 % IV
  Tmax: 0.5 h
  t½: 7.3 h

## Cc1ccc(Nc2ccnc(Nc3ccc(N4CCN(CCO)CC4)c(Cl)c3)n2)c(CC#N)c1 [Compound 18, 2-(2-(2-(3-chloro-4-(4-(2-hydroxyethyl)piperazin-1-yl)phenylamino)pyrimidin-4-ylamino)-5-methylphenyl)acetonitrile]
JAK2 kinase
  IC50: 10 to 1000 nM
ALK2
  IC50: 10 to 1000 nM

## Maleate
[2]; [4]
  AUC 0-inf: 484.8 ng·h/mL
  Cmax: 34.2 ng/mL
  F: 12.1 % IV
  Tmax: 8.0 h
  t½: 8.5 h

## COc1cc(Nc2nccc(Nc3ccc(C)c(CC#N)c3)n2)ccc1N1CCN(C)CC1 [Compound 21, 2-(5-(2-(3-methoxy-4-(4-methylpiperazin-1-yl)phenylamino)pyrimidin-4-ylamino)-2-methylphenyl)acetonitrile]
JAK2 kinase
  IC50: < 10 nM
ALK2
  IC50: 10 to 1000 nM

## CN1CCN(c2ccc(Nc3ncc(C#N)c(Nc4cccc(CC#N)c4)n3)cc2F)CC1 [Compound 3, 4-((3-(cyanomethyl)phenyl)amino)-2((3-fluoro-4-(4-methylpiperazin-1-yl)phenyl)amino)pyrimidine-5-carbonitrile]
JAK2 kinase
  IC50: > 1000 nM
ALK2
  IC50: > 1000 nM

## COc1cc(Nc2nccc(Nc3ccc(C)nc3-c3ccccn3)n2)cc(OC)c1OC [Compound 17, N^4-(6-methyl-2,2′-bipyridin-3-yl)-N^2-(3,4,5-trimethoxyphenyl)pyrimidine-2,4-diamine]
JAK2 kinase
  IC50: > 1000 nM
ALK2
  IC50: 10 to 1000 nM

## OCCN1CCN(c2ccc(Nc3nccc(Nc4cccnc4-c4ccccn4)n3)cc2Cl)CC1 [Compound 10, 2-(4-(4-(4-(2,2′-bipyridin-3-ylamino)pyrimidin-2-ylamino)-2-chlorophenyl)piperazin-1-yl)ethanol]
JAK2 kinase
  IC50: 10 to 1000 nM
ALK2
  IC50: 10 to 1000 nM

## COc1cc(Nc2nccc(Nc3cccc(C4(C#N)CC4)c3)n2)cc(OC)c1OC [Compound 5, 1-(3-(2-(3,4,5-trimethoxyphenylamino)pyrimidin-4-ylamino)phenyl)cyclopropanecarbonitrile]
JAK2 kinase
  IC50: < 10 nM
ALK2
  IC50: > 1000 nM

## COc1cc(Nc2nccc(Nc3ccc(C)nc3-c3ccccn3)n2)ccc1N1CCN(C)CC1 [Compound 16, N^2-(3-methoxy-4-(4-methylpiperazin-1-yl)phenyl)-N^4-(6-methyl-2,2′-bipyridin-3-yl)pyrimidine-2,4-diamine]
JAK2 kinase
  IC50: > 1000 nM
ALK2
  IC50: 10 to 1000 nM

## Citrate
[2]; [4]
  AUC 0-inf: 801.5 ng·h/mL
  Cmax: 93.4 ng/mL
  F: 22.4 % IV
  Tmax: 0.5 h
  t½: 6.8 h

## COc1cc(Nc2nccc(Nc3cccnc3-c3ccccn3)n2)ccc1N1CCN(C)CC1 [Compound 11, N^4-(2,2′-bipyridin-3-yl)-N^2-(3-methoxy-4-(4-methylpiperazin-1-yl)phenyl)pyrimidine-2,4-diamine]
JAK2 kinase
  IC50: > 1000 nM
ALK2
  IC50: < 10 nM

## Cc1ccc(Nc2ccnc(Nc3ccc(N4CCN(CCO)CC4)c(Cl)c3)n2)c(-c2ccccn2)n1 [Compound 15, 2-(4-(2-chloro-4-(4-(6-methyl-2,2′-bipyridin-3-ylamino)pyrimidin-2-ylamino)phenyl)piperazin-1-yl)ethanol]
JAK2 kinase
  IC50: > 1000 nM
ALK2
  IC50: 10 to 1000 nM

## COc1cc(Nc2ncc(OC)c(Nc3cccnc3-c3ccccn3)n2)ccc1N1CCN(C)CC1 [Compound 14, N^4-([2,2′-bipyridin]-3-yl)-5-methoxy-N^2-(3-methoxy-4-(4-methylpiperazin-1-yl)phenyl)pyrimidine-2,4-diamine]
JAK2 kinase
  IC50: 10 to 1000 nM
ALK2
  IC50: > 1000 nM

## COc1cc(Nc2nccc(Nc3cccc(C4(C#N)CC4)c3)n2)ccc1N1CCN(C)CC1 [Compound 4, 1-(3-(2-(3-methoxy-4-(4-methylpiperazin-1-yl)phenylamino)pyrimidin-4-ylamino)phenyl)cyclopropanecarbonitrile]
JAK2 kinase
  IC50: < 10 nM
ALK2
  IC50: 10 to 1000 nM
Hepcidin expression
  hepcidin expression in mice compared to compound A: inhibit hepcidin expression to a greater extent than compound A
[2]; IV
  F: 100.0 % IV
[2]; [4]
  F: 15.4 % IV
[2]; female rats
  plasma concentration levels after 24 hours: remain high
[2]; female, rat, plasma, iv, read-out: AUC 0-inf
  AUC 0-inf: 1380 ng·h/mL
[2]; female, rat, plasma, iv, read-out: Cmax
  Cmax: 996 ng/mL
[2]; female, rat, plasma, iv, read-out: Tmax
  Tmax: 0 h
[2]; female, rat, plasma, iv
  half-life: 9.2 h
[2]; female, rat, plasma, PO, free base or salt form as labelled, read-out: AUC 0-inf
  AUC 0-inf: 852 ng·h/mL
[2]; female, rat, plasma, PO, free base or salt form as labelled, read-out: Cmax
  Cmax: 118 ng/mL
[2]; female, rat, plasma, PO, free base or salt form as labelled, read-out: Tmax
  Tmax: 2 h
[2]; female, rat, plasma, PO, free base or salt form as labelled
  half-life: 6.5 h

## N#CCc1cc(F)ccc1Nc1ccnc(Nc2ccc(N3CCN(CCO)CC3)c(Cl)c2)n1 [Compound 22, 2-(2-(2-(3-chloro-4-(4-(2-hydroxyethyl)piperazin-1-yl)phenylamino)pyrimidin-4-ylamino)-5-fluorophenyl) acetonitrile]
JAK2 kinase
  IC50: 10 to 1000 nM
ALK2
  IC50: 10 to 1000 nM

## Cc1cnc(Nc2ccc(N3CCN(C)CC3)c(F)c2)nc1Nc1cccc(CC#N)c1 [Compound 2, 2-(3-((2-((3-fluoro-4-(4-methylpiperazin-1-yl)phenyl)amino)-5-methylpyrimidin-4-yl)amino)phenyl)acetonitrile]
JAK2 kinase
  IC50: > 1000 nM
ALK2
  IC50: > 1000 nM

## COc1cnc(Nc2ccc(N3CCN(CCO)CC3)c(Cl)c2)nc1Nc1cccnc1-c1ccccn1 [Compound 13, 2-(4-(4-(4-(2,2′-bipyridin-3-ylamino)-5-methoxypyrimidin-2-ylamino)-2-chlorophenyl)piperazin-1-yl)ethanol]
JAK2 kinase
  IC50: > 1000 nM
ALK2
  IC50: > 1000 nM
